Assay results from patent US10703756B2, “Pyrrolo[2,3-D]pyrimidinyl, pyrrolo[2,3-B]pyrazinyl, pyrrolo[2,3-B]pyridinyl acrylamides and epoxides thereof” (Pfizer Inc., priority 2015, dated 2020).

Assays:
JAK3 enzyme [1] = target: T1, JAK3 enzyme (Homo sapiens, UniProt P52333); assay: JAK Caliper Enzyme Assay at 4 μM ATP; type: biochemical
T1 sequence (P52333 1-1124): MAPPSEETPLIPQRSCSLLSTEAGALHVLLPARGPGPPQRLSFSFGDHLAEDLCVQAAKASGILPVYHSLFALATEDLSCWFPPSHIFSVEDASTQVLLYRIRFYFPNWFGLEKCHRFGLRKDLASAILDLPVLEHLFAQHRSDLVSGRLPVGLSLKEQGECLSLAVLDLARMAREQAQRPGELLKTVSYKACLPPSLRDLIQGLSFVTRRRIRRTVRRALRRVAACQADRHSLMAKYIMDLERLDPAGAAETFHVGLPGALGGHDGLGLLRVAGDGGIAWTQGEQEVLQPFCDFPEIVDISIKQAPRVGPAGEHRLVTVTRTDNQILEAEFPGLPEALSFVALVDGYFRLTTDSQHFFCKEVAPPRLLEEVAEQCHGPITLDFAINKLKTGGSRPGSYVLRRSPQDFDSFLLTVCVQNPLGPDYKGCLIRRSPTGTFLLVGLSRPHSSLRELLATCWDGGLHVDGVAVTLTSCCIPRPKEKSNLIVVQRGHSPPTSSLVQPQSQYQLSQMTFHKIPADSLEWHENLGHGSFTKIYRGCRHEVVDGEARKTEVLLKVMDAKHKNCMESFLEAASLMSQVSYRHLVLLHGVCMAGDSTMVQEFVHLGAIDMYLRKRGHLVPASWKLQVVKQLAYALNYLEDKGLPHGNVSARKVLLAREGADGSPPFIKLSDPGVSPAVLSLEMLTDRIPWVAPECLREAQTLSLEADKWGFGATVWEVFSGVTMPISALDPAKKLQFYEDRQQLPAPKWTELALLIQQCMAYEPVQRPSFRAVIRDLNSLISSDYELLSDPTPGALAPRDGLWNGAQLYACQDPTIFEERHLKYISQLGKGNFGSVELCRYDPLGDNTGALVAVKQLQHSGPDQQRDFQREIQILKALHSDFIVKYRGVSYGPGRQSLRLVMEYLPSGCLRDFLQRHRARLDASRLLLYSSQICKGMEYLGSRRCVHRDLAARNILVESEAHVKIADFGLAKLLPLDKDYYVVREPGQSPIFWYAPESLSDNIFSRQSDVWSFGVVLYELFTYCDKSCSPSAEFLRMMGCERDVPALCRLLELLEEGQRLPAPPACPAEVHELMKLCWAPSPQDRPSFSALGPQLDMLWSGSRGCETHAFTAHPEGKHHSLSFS
Method in brief: (§1)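 Substrate conversion was kept within 20%-30% by adjusting enzyme and incubation for every preparation; peptide phosphorylation was quantified via on-chip mobility shift.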

[2] = test system: IL-15 induced P-STAT5 in human PBMC; assay: PBMC IL-15 Induced P-STAT5; type: cell-based; settings: human PBMC, IL-15 final 41 ng/mL; read-out: PBMC IL15_pSTAT5_IC50
Method in brief: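 Flow cytometry gated on total lymphocytes measured STAT5 staining (Alexa Fluor 647 antibody, overnight, 4 °C) in fixed, methanol-permeabilised human PBMC. Cells had received compound for 15 min at 37 °C (0.2% DMSO final), followed by 41 ng/mL final human IL-15 for 15 min.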

[3] = test system: IL-15 induced STAT5 phosphorylation in human whole blood lymphocytes; assay: HWB IL-15 Induced STAT5 Phosphorylation Assay; type: cell-based; settings: Lymphocyte, IL-15 final 50 ng/ml, read-out: HWB_IL15 pSTAT5 IC50
Procedure: HWB IL-15 Induced STAT5 Phosphorylation Assay
After serial dilution of the test compounds 1:2 in DMSO at desired concentration (500× of final), the compounds were further diluted in PBS (by adding 4 μL compound/DMSO in 96 μL PBS, [DMSO]=4%, 20× final). To 96-well polypropylene plates were added 90 μl HWB (heparin treated Human Whole Blood)/well, followed by 5 μl/well 4% DMSO in D-PBS or various concentrations of 20× inhibitor in 4% DMSO in D-PBS (w/o Ca^+2 or Mg^+2) to give 1× in 0.2% DMSO. After mixing and incubating for 45 minutes at 37° C., 5 μl D-PBS (unstimulated control) or 20× stocks of 5 μl human IL-15 (final concentration is 50 ng/ml) were added, and mixed three times. After incubating 15 minutes at 37° C., 1× Lyse/Fix Buffer (BD Phosflow 5× Lyse/Fix Buffer) was added to all wells at 1000 μl/well, then incubated for 20 minutes at 37° C. and spun 5 mins at 1200 rpm. After washing in 1000 μl FACS buffer 1× and spinning for 5 mins at 1200 rpm, 400 μl ice cold Perm Buffer III were added to each well. After mixing gently (1-2×) and incubating on ice for 30 minutes, spinning for 5 mins at 1200 rpm without interruption, and washing 1× in cold […] FACS buffer (D-PBS containing 0.1% BSA and 0.1% sodium azide) 250 μl/well of the desired AlexaFluor647-conjugated anti-phospho STATS antibody at 1:125 dilution in FACS buffer was added. Following incubating at 4° C. over night, all the samples were transferred to 96-well polypropylene U-bottom plate, and checked by flow cytometry gated on total lymphocytes.

JAK3 enzyme [4] = target: T1, JAK3 enzyme; assay: JAK Caliper Enzyme Assay at 1 mM ATP; type: biochemical
Method in brief: as §1

| SMILES | IC50 (JAK3 enzyme [1]) [nM] | IC50 [2] [nM] | IC50 [3] [nM] | IC50 (JAK3 enzyme [4]) [nM] |
| --- | --- | --- | --- | --- |
| C=CC(=O)N1CCC(Nc2cnc3[nH]cc(C(=O)NCC(F)(F)C(F)(F)F)c3n2)CC1 [Example 179, 2-[(1-acryloylpiperidin-4-yl)amino]-N-(2,2,3,3,3-pentafluoropropyl)-5H-pyrrolo[2,3-b]pyrazine-7-carboxamide] | 0.596 | 94.8 | 850 | 18 |
| C=CC(=O)N1CCC(Nc2cnc3[nH]cc(C(=O)NCc4sc(C(F)(F)F)nc4C)c3n2)CC1 [Example 180, 2-[(1-acryloylpiperidin-4-yl)amino]-N-{[4-methyl-2-(trifluoromethyl)-1,3-thiazol-5-yl]methyl}-5H-pyrrolo[2,3-b]pyrazine-7-carboxamide] | 0.481 | 204 | 944 | 12 |
| C=CC(=O)N1CCC(Nc2cnc3[nH]cc(C(=O)NCc4ccc(OC(F)F)cc4)c3n2)CC1 [Example 181, 2-[(1-acryloylpiperidin-4-yl)amino]-N-[4-(difluoromethoxy)benzyl]-5H-pyrrolo[2,3-b]pyrazine-7-carboxamide] | 0.379 | 159 | 1820 | 5 |
| C=CC(=O)N1CCC(Nc2cnc3[nH]cc(C(=O)NCc4scnc4C(F)(F)F)c3n2)CC1 [Example 185, 2-[(1-acryloylpiperidin-4-yl)amino]-N-{[4-(trifluoromethyl)-1,3-thiazol-5-yl]methyl}-5H-pyrrolo[2,3-b]pyrazine-7-carboxamide] | 0.372 | 73 | 542 | 6 |
| C=CC(=O)N1CCC(Nc2cnc3[nH]cc(C(=O)NCc4ccc(Cl)cn4)c3n2)CC1 [Example 186, 2-[(1-acryloylpiperidin-4-yl)amino]-N-[(5-chloropyridin-2-yl)methyl]-5H-pyrrolo[2,3-b]pyrazine-7-carboxamide] | 0.485 | 213 | 870 | 15 |
| C=CC(=O)N1CCC(Nc2cnc3[nH]cc(C(=O)NCc4ccc(OC)c(F)c4)c3n2)CC1 [Example 190, 2-[(1-acryloylpiperidin-4-yl)amino]-N-(3-fluoro-4-methoxybenzyl)-5H-pyrrolo[2,3-b]pyrazine-7-carboxamide] | 0.193 | 96.9 | 619 | 7 |
| C=CC(=O)N1CCC(Nc2cnc3[nH]cc(C(=O)NCc4ccc(OC)cc4)c3n2)CC1 [Example 191, 2-[(1-acryloylpiperidin-4-yl)amino]-N-(4-methoxybenzyl)-5H-pyrrolo[2,3-b]pyrazine-7-carboxamide] | 0.484 | 137 | 778 | 9 |
| C=CC(=O)N1CCC(Nc2cnc3[nH]cc(C(=O)NCC4CCC4)c3n2)CC1 [Example 193, 2-[(1-acryloylpiperidin-4-yl)amino]-N-(cyclobutylmethyl)-5H-pyrrolo[2,3-b]pyrazine-7-carboxamide] | 0.393 | 68.4 | 637 | 5 |
| C=CC(=O)N1CCC(Nc2cnc3[nH]cc(C(=O)NCc4sc(C)nc4C(F)(F)F)c3n2)CC1 [Example 195, 2-[(1-acryloylpiperidin-4-yl)amino]-N-{[2-methyl-4-(trifluoromethyl)-1,3-thiazol-5-yl]methyl}-5H-pyrrolo[2,3-b]pyrazine-7-carboxamide] | 0.494 | 82.7 | 688 | 7 |
| C=CC(=O)N1CCC(Oc2cnc3[nH]cc(C(=O)NCCC(F)(F)F)c3n2)CC1 [Example 198, 2-[(1-acryloylpiperidin-4-yl)oxy]-N-(3,3,3-trifluoropropyl)-5H-pyrrolo[2,3-b]pyrazine-7-carboxamide] | 0.361 | 250 | 1400 | 53 |
| C=CC(=O)N1CCC(Oc2cnc3[nH]cc(C(=O)N[C@@H]4CC[C@H](F)C4)c3n2)CC1 [Example 199, 2-[(1-acryloylpiperidin-4-yl)oxy]-N-[(1R,3S)-3-fluorocyclopentyl]-5H-pyrrolo[2,3-b]pyrazine-7-carboxamide] | 0.414 | 250 | 2020 | 47 |
| C=CC(=O)N1CCC(Oc2cnc3[nH]cc(C(=O)NCCOC)c3n2)CC1 [Example 211, 2-[(1-acryloylpiperidin-4-yl)oxy]-N-(2-methoxyethyl)-5H-pyrrolo[2,3-b]pyrazine-7-carboxamide] | 0.5 | 395 | 1740 | 74 |
| C=CC(=O)N1CCC(Oc2cnc3[nH]cc(C(=O)NCC(C)C)c3n2)CC1 [Example 222, 2-[(1-acryloylpiperidin-4-yl)oxy]-N-(2-methylpropyl)-5H-pyrrolo[2,3-b]pyrazine-7-carboxamide] | 0.38 | 280 | 1020 | 53 |
| C=CC(=O)N1CCN(c2cnc3[nH]cc(C(=O)NCC4CCCC4)c3n2)CC1 [Example 266, 2-(4-acryloylpiperazin-1-yl)-N-(cyclopentylmethyl)-5H-pyrrolo[2,3-b]pyrazine-7-carboxamide] | 0.2 | 64.2 | 528 | 22 |
| C=CC(=O)N1CC[C@@H](Nc2cnc3[nH]cc(C(=O)NCCC(F)(F)F)c3n2)[C@@H](OC)C1 [Example 278, 2-{[(3S,4R)-1-acryloyl-3-methoxypiperidin-4-yl]amino}-N-(3,3,3-trifluoropropyl)-5H-pyrrolo[2,3-b]pyrazine-7-carboxamide] | 1.23 | 272 | 2460 | 70 |
| C=CC(=O)N1CCN(c2cnc3[nH]cc(C(=O)NC4CC(F)(F)C4)c3n2)CC1 [Example 283, 2-(4-acryloylpiperazin-1-yl)-N-(3,3-difluorocyclobutyl)-5H-pyrrolo[2,3-b]pyrazine-7-carboxamide] | 0.509 | 257 | 1200 | 97 |
| C=CC(=O)N1CCN(c2cnc3[nH]cc(C(=O)NC4CCC4)c3n2)CC1 [Example 297, 2-(4-acryloylpiperazin-1-yl)-N-cyclobutyl-5H-pyrrolo[2,3-b]pyrazine-7-carboxamide] | 0.43 | 150 | 718 | 45 |
| C=CC(=O)N1CCC(C)(Nc2cnc3[nH]cc(C(=O)NCC(C)C)c3n2)CC1 [Example 301, 2-[(1-acryloyl-4-methylpiperidin-4-yl)amino]-N-(2-methylpropyl)-5H-pyrrolo[2,3-b]pyrazine-7-carboxamide] | 0.431 | 387 | 3030 | 44 |
